Source: ChEMBL document CHEMBL4665642, “Anticancer profile of newly synthesized BRAF inhibitors possess 5-(pyrimidin-4-yl)imidazo[2,1-b]thiazole scaffold” (Bioorg Med Chem, 2019)

Experiments:
Assay type in all cases: functional
Conditions in all cases: read-out: Activity
SK-MEL-5 = assay: Cytotoxicity against human SK-MEL-5 cells assessed as cell viability at 10 uM incubated for 48 hrs by sulforhodamine B assay relative to control
SK-OV-3 = assay: Cytotoxicity against human SK-OV-3 cells assessed as cell viability at 10 uM incubated for 48 hrs by sulforhodamine B assay relative to control
T47D = assay: Cytotoxicity against human T47D cells assessed as cell viability at 10 uM incubated for 48 hrs by sulforhodamine B assay relative to control
786-0 = assay: Cytotoxicity against human 786-0 cells assessed as cell viability at 10 uM incubated for 48 hrs by sulforhodamine B assay relative to control
PC-3 = assay: Cytotoxicity against human PC-3 cells assessed as cell viability at 10 uM incubated for 48 hrs by sulforhodamine B assay relative to control
Malme-3M = assay: Cytotoxicity against human Malme-3M cells assessed as cell viability at 10 uM incubated for 48 hrs by sulforhodamine B assay relative to control
NCI-H226 = assay: Cytotoxicity against human NCI-H226 cells assessed as cell viability at 10 uM incubated for 48 hrs by sulforhodamine B assay relative to control
MDA-MB-231 = assay: Cytotoxicity against human MDA-MB-231 cells assessed as cell viability at 10 uM incubated for 48 hrs by sulforhodamine B assay relative to control
MOLT-4 = assay: Cytotoxicity against human MOLT-4 cells assessed as cell viability at 10 uM incubated for 48 hrs by sulforhodamine B assay relative to control
M14 = assay: Cytotoxicity against human M14 cells assessed as cell viability at 10 uM incubated for 48 hrs by sulforhodamine B assay relative to control
SN12C = assay: Cytotoxicity against human SN12C cells assessed as cell viability at 10 uM incubated for 48 hrs by sulforhodamine B assay relative to control
Hs-578T = assay: Cytotoxicity against human HS-578T cells assessed as cell viability at 10 uM incubated for 48 hrs by sulforhodamine B assay relative to control
MCF7 = assay: Cytotoxicity against human MCF7 cells assessed as cell viability at 10 uM incubated for 48 hrs by sulforhodamine B assay relative to control
SF-268 = assay: Cytotoxicity against human SF-268 cells assessed as cell viability at 10 uM incubated for 48 hrs by sulforhodamine B assay relative to control
HOP-62 = assay: Cytotoxicity against human HOP-62 cells assessed as cell viability at 10 uM incubated for 48 hrs by sulforhodamine B assay relative to control
SF-539 = assay: Cytotoxicity against human SF-539 cells assessed as cell viability at 10 uM incubated for 48 hrs by sulforhodamine B assay relative to control
SNB-75 = assay: Cytotoxicity against human SNB-75 cells assessed as cell viability at 10 uM incubated for 48 hrs by sulforhodamine B assay relative to control
NCI/ADR-RES = assay: Cytotoxicity against human NCI/ADR-RES cells assessed as cell viability at 10 uM incubated for 48 hrs by sulforhodamine B assay relative to control
TK-10 = assay: Cytotoxicity against human TK-10 cells assessed as cell viability at 10 uM incubated for 48 hrs by sulforhodamine B assay relative to control
HCT-15 = assay: Cytotoxicity against human HCT-15 cells assessed as cell viability at 10 uM incubated for 48 hrs by sulforhodamine B assay relative to control
RPMI-8226 = assay: Cytotoxicity against human RPMI-8226 cells assessed as cell viability at 10 uM incubated for 48 hrs by sulforhodamine B assay relative to control
KM12 = assay: Cytotoxicity against human KM12 cells assessed as cell viability at 10 uM incubated for 48 hrs by sulforhodamine B assay relative to control
K562 = assay: Cytotoxicity against human K562 cells assessed as cell viability at 10 uM incubated for 48 hrs by sulforhodamine B assay relative to control
BT-549 = assay: Cytotoxicity against human BT-549 cells assessed as cell viability at 10 uM incubated for 48 hrs by sulforhodamine B assay relative to control
NCI-H460 = assay: Cytotoxicity against human NCI-H460 cells assessed as cell viability at 10 uM incubated for 48 hrs by sulforhodamine B assay relative to control
COLO 205 = assay: Cytotoxicity against human COLO 205 cells assessed as cell viability at 10 uM incubated for 48 hrs by sulforhodamine B assay relative to control
UO-31 = assay: Cytotoxicity against human UO-31 cells assessed as cell viability at 10 uM incubated for 48 hrs by sulforhodamine B assay relative to control
SK-MEL-28 = assay: Cytotoxicity against human SK-MEL-28 cells assessed as cell viability at 10 uM incubated for 48 hrs by sulforhodamine B assay relative to control
RXF 393 = assay: Cytotoxicity against human RXF 393 cells assessed as cell viability at 10 uM incubated for 48 hrs by sulforhodamine B assay relative to control
HOP-92 = assay: Cytotoxicity against human HOP-92 cells assessed as cell viability at 10 uM incubated for 48 hrs by sulforhodamine B assay relative to control
SNB-19 = assay: Cytotoxicity against human SNB-19 cells assessed as cell viability at 10 uM incubated for 48 hrs by sulforhodamine B assay relative to control
DU-145 = assay: Cytotoxicity against human DU-145 cells assessed as cell viability at 10 uM incubated for 48 hrs by sulforhodamine B assay relative to control
OVCAR-4 = assay: Cytotoxicity against human OVCAR-4 cells assessed as cell viability at 10 uM incubated for 48 hrs by sulforhodamine B assay relative to control
SW-620 = assay: Cytotoxicity against human SW-620 cells assessed as cell viability at 10 uM incubated for 48 hrs by sulforhodamine B assay relative to control
HL-60(TB) = assay: Cytotoxicity against human HL-60(TB) cells assessed as cell viability at 10 uM incubated for 48 hrs by sulforhodamine B assay relative to control
HCT-29 = assay: Cytotoxicity against human […] cells assessed as cell viability at 10 uM incubated for 48 hrs by sulforhodamine B assay relative to control
UACC-62 = assay: Cytotoxicity against human UACC-62 cells assessed as cell viability at 10 uM incubated for 48 hrs by sulforhodamine B assay relative to control
OVCAR-3 = assay: Cytotoxicity against human OVCAR-3 cells assessed as cell viability at 10 uM incubated for 48 hrs by sulforhodamine B assay relative to control
OVCAR-5 = assay: Cytotoxicity against human OVCAR-5 cells assessed as cell viability at 10 uM incubated for 48 hrs by sulforhodamine B assay relative to control
A549 = assay: Cytotoxicity against human A549 cells assessed as cell viability at 10 uM incubated for 48 hrs by sulforhodamine B assay relative to control
IGROV-1 = assay: Cytotoxicity against human IGROV-1 cells assessed as cell viability at 10 uM incubated for 48 hrs by sulforhodamine B assay relative to control

`O=S(=O)(NCCNc1nccc(-c2c(-c3cccc(F)c3)nc3sccn23)n1)c1cccc2ccccc12` was tested, and the viability at 10 µM (SK-MEL-5) was 88.3%, the viability at 10 µM (SK-OV-3) was 98.5% and the viability at 10 µM (T47D) was 81.7%. The viability at 10 µM (786-0) was 95.4%, the viability at 10 µM (PC-3) was 80.2% and the viability at 10 µM (Malme-3M) was 118%. For the same compound, the viability at 10 µM (NCI-H226) was 94.1%, the viability at 10 µM (MDA-MB-231) was 95% and the viability at 10 µM (MOLT-4) was 73.7%. For the same compound, the viability at 10 µM (M14) was 107%, the viability at 10 µM (SN12C) was 97.1% and the viability at 10 µM (Hs-578T) was 103%. The viability at 10 µM (MCF7) was 74.6%, the viability at 10 µM (SF-268) was 85.6% and the viability at 10 µM (HOP-62) was 110%. It also gave a viability at 10 µM (SF-539) of 109%, a viability at 10 µM (SNB-75) of 92.3% and a viability at 10 µM (NCI/ADR-RES) of 97.3%. The viability at 10 µM (TK-10) was 112%, the viability at 10 µM (HCT-15) was 83.6% and the viability at 10 µM (RPMI-8226) was 83.9%. It also gave a viability at 10 µM (KM12) of 85%, a viability at 10 µM (K562) of 78.3% and a viability at 10 µM (BT-549) of 104%. The viability at 10 µM (NCI-H460) was 97.7%, the viability at 10 µM (COLO 205) was 85% and the viability at 10 µM (UO-31) was 59.2%. For the same compound, the viability at 10 µM (SK-MEL-28) was 123%, the viability at 10 µM (RXF 393) was 102% and the viability at 10 µM (HOP-92) was 91.2%. It also gave a viability at 10 µM (SNB-19) of 96.2%, a viability at 10 µM (DU-145) of 97.8% and a viability at 10 µM (OVCAR-4) of 105%. It also gave a viability at 10 µM (SW-620) of 115%, a viability at 10 µM (HL-60(TB)) of 116% and a viability at 10 µM (HCT-29) of 83.2%. For the same compound, the viability at 10 µM (UACC-62) was 91.8%, the viability at 10 µM (OVCAR-3) was 103% and the viability at 10 µM (OVCAR-5) was 127%. For the same compound, the viability at 10 µM (A549) was 88% and the viability at 10 µM (IGROV-1) was 61%.

Work on `O=S(=O)(NCCCNc1nccc(-c2c(-c3cccc(F)c3)nc3sccn23)n1)c1ccc(C(F)(F)F)cc1` yielded a viability at 10 µM (SK-MEL-5) of 91.1%, a viability at 10 µM (SK-OV-3) of 77.7% and a viability at 10 µM (T47D) of 56%. It also gave a viability at 10 µM (786-0) of 80.1%, a viability at 10 µM (PC-3) of 67.8% and a viability at 10 µM (Malme-3M) of 127%. It also gave a viability at 10 µM (NCI-H226) of 77.5%, a viability at 10 µM (MDA-MB-231) of 96.5% and a viability at 10 µM (MOLT-4) of 62%. The viability at 10 µM (M14) was 92.4%, the viability at 10 µM (SN12C) was 89% and the viability at 10 µM (Hs-578T) was 83.5%. For the same compound, the viability at 10 µM (MCF7) was 82.1%, the viability at 10 µM (SF-268) was 75.6% and the viability at 10 µM (HOP-62) was 104%. For the same compound, the viability at 10 µM (SF-539) was 110%, the viability at 10 µM (SNB-75) was 86.4% and the viability at 10 µM (NCI/ADR-RES) was 87.2%. For the same compound, the viability at 10 µM (TK-10) was 107%, the viability at 10 µM (HCT-15) was 78.8% and the viability at 10 µM (RPMI-8226) was 87.4%. It also gave a viability at 10 µM (KM12) of 88.5%, a viability at 10 µM (K562) of 69.8% and a viability at 10 µM (BT-549) of 99.8%. For the same compound, the viability at 10 µM (NCI-H460) was 98.7%, the viability at 10 µM (COLO 205) was 91% and the viability at 10 µM (UO-31) was 57.9%. The viability at 10 µM (SK-MEL-28) was 116%, the viability at 10 µM (RXF 393) was 94.7% and the viability at 10 µM (HOP-92) was 94.8%. The viability at 10 µM (SNB-19) was 96.1%, the viability at 10 µM (DU-145) was 94.7% and the viability at 10 µM (OVCAR-4) was 93%. The viability at 10 µM (SW-620) was 115%, the viability at 10 µM (HL-60(TB)) was 127% and the viability at 10 µM (HCT-29) was 80.1%. For the same compound, the viability at 10 µM (UACC-62) was 80.4%, the viability at 10 µM (OVCAR-3) was 92.8% and the viability at 10 µM (OVCAR-5) was 129%. The viability at 10 µM (A549) was 83.5% and the viability at 10 µM (IGROV-1) was 66.2%.

Compound `O=S(=O)(NCCNc1nccc(-c2c(-c3cccc(F)c3)nc3sccn23)n1)c1ccc(F)cc1` has a viability at 10 µM (SK-MEL-5) of 35.4%, a viability at 10 µM (SK-OV-3) of 79.9% and a viability at 10 µM (T47D) of 40.4%. It also gave a viability at 10 µM (786-0) of 58.7%, a viability at 10 µM (PC-3) of 51.4% and a viability at 10 µM (Malme-3M) of 81.1%. The viability at 10 µM (NCI-H226) was 45.6%, the viability at 10 µM (MDA-MB-231) was 76.6% and the viability at 10 µM (MOLT-4) was 41.1%. For the same compound, the viability at 10 µM (M14) was 67.8%, the viability at 10 µM (SN12C) was 49.2% and the viability at 10 µM (Hs-578T) was 68%. The viability at 10 µM (MCF7) was 22%, the viability at 10 µM (SF-268) was 53.8% and the viability at 10 µM (HOP-62) was 80.1%. For the same compound, the viability at 10 µM (SF-539) was 83.2%, the viability at 10 µM (SNB-75) was 67.7% and the viability at 10 µM (NCI/ADR-RES) was 66.7%. It also gave a viability at 10 µM (TK-10) of 80.4%, a viability at 10 µM (HCT-15) of 32.2% and a viability at 10 µM (RPMI-8226) of 63.4%. For the same compound, the viability at 10 µM (KM12) was 40.1%, the viability at 10 µM (K562) was 38.8% and the viability at 10 µM (BT-549) was 78.6%. It also gave a viability at 10 µM (NCI-H460) of 35%, a viability at 10 µM (COLO 205) of 39.5% and a viability at 10 µM (UO-31) of 23.2%. The viability at 10 µM (SK-MEL-28) was 81.1%, the viability at 10 µM (RXF 393) was 68.9% and the viability at 10 µM (HOP-92) was 84.8%. It also gave a viability at 10 µM (SNB-19) of 67.4%, a viability at 10 µM (DU-145) of 52.4% and a viability at 10 µM (OVCAR-4) of 59.3%. It also gave a viability at 10 µM (SW-620) of 63%, a viability at 10 µM (HL-60(TB)) of 95.1% and a viability at 10 µM (HCT-29) of 28.7%. The viability at 10 µM (UACC-62) was 44.4%, the viability at 10 µM (OVCAR-3) was 67.2% and the viability at 10 µM (OVCAR-5) was 92.5%. It also gave a viability at 10 µM (A549) of 32.1% and a viability at 10 µM (IGROV-1) of 11.3%.
